Assay results: ChEMBL document CHEMBL1806435, “Discovery of bacterial NAD+-dependent DNA ligase inhibitors: optimization of antibacterial activity” (Bioorg Med Chem Lett, 2011)
≈ marks a conversion by molar mass, not a printed value.

Key:
[1] = Inhibition of Staphylococcus aureus LigA by FRET-based assay
[2] = Inhibition of Streptococcus pneumoniae LigA by FRET-based assay
Streptococcus pneumoniae = experiment: Antibacterial activity against Streptococcus pneumoniae; format: functional
Staphylococcus aureus = experiment: Antibacterial activity against Staphylococcus aureus; format: functional
[3] = Apparent permeability from apical to basolateral side in human Caco2 cells; format: ADME, cell-based; details: Caco-2
[4] = Lipophilicity, log D of the compound in octanol buffer at pH 7.4 by shake flask method; format: physicochemical
[5] = Equilibrium solubility of the compound; format: physicochemical
[6] = Plasma protein binding in human assessed as fraction unbound by equilibrium dialysis method; format: ADME, cell-free
[7] = Inhibition of […] LigA by FRET-based assay; parameters: species or system Haemophilus influenzae
[8] = Inhibition of Escherichia coli LigA by FRET-based assay
DNA ligase 1 = DNA ligase 1 (Homo sapiens, UniProt P18858); experiment: Inhibition of human DNA Ligase I by FRET-based assay
DNA ligase 1, sequence (P18858 whole entry): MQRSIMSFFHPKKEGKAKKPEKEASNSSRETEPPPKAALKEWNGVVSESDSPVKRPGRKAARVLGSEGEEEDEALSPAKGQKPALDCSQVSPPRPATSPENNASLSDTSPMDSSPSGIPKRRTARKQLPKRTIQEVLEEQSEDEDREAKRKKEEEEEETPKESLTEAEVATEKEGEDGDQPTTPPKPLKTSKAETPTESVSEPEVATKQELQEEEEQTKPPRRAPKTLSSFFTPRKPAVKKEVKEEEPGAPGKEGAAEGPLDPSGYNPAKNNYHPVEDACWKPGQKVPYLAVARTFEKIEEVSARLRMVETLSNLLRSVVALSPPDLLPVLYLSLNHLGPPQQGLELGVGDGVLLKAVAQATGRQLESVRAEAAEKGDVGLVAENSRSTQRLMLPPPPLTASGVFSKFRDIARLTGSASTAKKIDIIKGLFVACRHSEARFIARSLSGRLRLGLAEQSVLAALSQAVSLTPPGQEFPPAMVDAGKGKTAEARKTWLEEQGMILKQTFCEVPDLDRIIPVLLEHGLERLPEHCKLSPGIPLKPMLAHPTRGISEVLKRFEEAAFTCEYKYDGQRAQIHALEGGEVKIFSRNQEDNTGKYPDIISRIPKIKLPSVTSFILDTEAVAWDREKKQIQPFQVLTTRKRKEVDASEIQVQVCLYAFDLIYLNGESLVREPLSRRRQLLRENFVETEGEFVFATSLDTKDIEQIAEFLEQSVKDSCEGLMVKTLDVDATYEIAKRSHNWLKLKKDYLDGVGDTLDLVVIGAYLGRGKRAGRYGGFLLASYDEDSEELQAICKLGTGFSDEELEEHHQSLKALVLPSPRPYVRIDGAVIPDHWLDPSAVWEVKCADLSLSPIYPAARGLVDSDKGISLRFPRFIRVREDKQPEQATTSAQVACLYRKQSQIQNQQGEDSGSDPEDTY

Haemophilus influenzae = experiment: Antibacterial activity against efflux pump-deficient Haemophilus influenzae; format: functional

| Structure (SMILES) | IC50 [1] | IC50 [2] | MIC (Streptococcus pneumoniae) | MIC (Staphylococcus aureus) | Papp A→B [3] | logD [4] | solubility thermodynamic [5] | fraction unbound [6] | IC50 [7] | IC50 [8] | IC50 (DNA ligase 1) | MIC (Haemophilus influenzae) |
| --- | --- | --- | --- | --- | --- | --- | --- | --- | --- | --- | --- | --- |
| Nc1nc(OCC2(CO)CC2)nc2c1ncn2[C@@H]1O[C@H](CF)[C@@H](O)[C@H]1O | 370 nM | 400 nM | > 64 µg/mL | > 64 µg/mL | – | – | – | – | – | – | – | – |
| C[C@H]1O[C@@H](n2cnc3c(N)nc(OC4CCCC4)nc32)[C@H](O)[C@@H]1O | 120 nM | 80 nM | 2 µg/mL (≈ 5.96 µM) | 8 µg/mL (≈ 23.9 µM) | 7.26 ×10⁻⁶ cm/s | – | – | – | – | – | – | – |
| C[C@H]1O[C@@H](n2cnc3c(N)nc(O[C@H]4CC[C@H](C)CC4)nc32)[C@H](O)[C@@H]1O | 160 nM | 50 nM | 1 µg/mL (≈ 2.75 µM) | 2 µg/mL (≈ 5.5 µM) | – | 2.35 | 934 µM (≈ 339 µg/mL) | 0.27 | – | – | – | – |
| Nc1nc(OC2CCCC2)nc2c1ncn2[C@@H]1O[C@H](CF)[C@@H](O)[C@H]1O | 120 nM | 120 nM | 4 µg/mL (≈ 11.3 µM) | 16 µg/mL (≈ 45.3 µM) | – | – | – | – | – | – | – | – |
| CCCCSc1nc(N)c2ncn([C@@H]3O[C@H](C)[C@@H](O)[C@H]3O)c2n1 | 170 nM | 130 nM | 8 µg/mL (≈ 23.6 µM) | 64 µg/mL (≈ 189 µM) | – | – | – | – | – | – | – | – |
| C[C@H]1O[C@@H](n2cnc3c(N)nc(OCC4CC45CC5)nc32)[C@H](O)[C@@H]1O (some centres undefined) | 60 nM | 40 nM | 1 µg/mL (≈ 2.88 µM) | 2 µg/mL (≈ 5.76 µM) | – | 1.78 | 801 µM (≈ 278 µg/mL) | 0.25 | – | – | – | – |
| Nc1nc(OCc2nccs2)nc2c1ncn2[C@@H]1O[C@H](CF)[C@@H](O)[C@H]1O | 910 nM | 870 nM | 64 µg/mL (≈ 167 µM) | > 64 µg/mL | – | – | – | – | – | – | – | – |
| C[C@H]1O[C@@H](n2cnc3c(N)nc(Oc4ccccc4)nc32)[C@H](O)[C@@H]1O | 140 nM | 2670 nM | 64 µg/mL (≈ 186 µM) | 64 µg/mL (≈ 186 µM) | – | – | – | – | – | – | – | – |
| [N-]=[N+]=N[C@@H]1[C@@H](O)[C@H](n2cnc3c(N)nc(OC4CCCC4)nc32)O[C@@H]1CF | 90 nM | 70 nM | 0.5 µg/mL (≈ 1.32 µM) | 8 µg/mL (≈ 21.1 µM) | – | 2.65 | – | 0.19 | – | – | – | – |
| Nc1nc(OCC2CCC2)nc2c1ncn2[C@@H]1O[C@H](CF)[C@@H](O)[C@H]1O | 60 nM | 50 nM | 2 µg/mL (≈ 5.66 µM) | 8 µg/mL (≈ 22.6 µM) | – | – | – | – | – | – | – | – |
| C[C@H]1O[C@@H](n2cnc3c(N)nc(OC4CCCC4)nc32)[C@H](O)[C@H]1Cl | 40 nM | 40 nM | 4 µg/mL (≈ 11.3 µM) | 8 µg/mL (≈ 22.6 µM) | – | 3.18 | 304 µM (≈ 108 µg/mL) | – | – | – | – | – |
| Nc1nc(SC2CCCC2)nc2c1ncn2[C@@H]1O[C@H](CO)[C@@H](O)[C@H]1O | 380 nM | 440 nM | 16 µg/mL (≈ 43.5 µM) | 32 µg/mL (≈ 87.1 µM) | – | – | – | – | – | – | – | – |
| CCCCSc1nc(N)c2ncn([C@@H]3O[C@H](CO)[C@@H](O)[C@H]3O)c2n1 | 80 nM | 140 nM | 32 µg/mL (≈ 90 µM) | > 64 µg/mL | – | – | – | 0.003 | 510 nM | 1270 nM | > 200000 nM | 32 µg/mL (≈ 90 µM) |
| Nc1nc(OC2CCCC2)nc2c1ncn2[C@@H]1O[C@H](CO)[C@@H](O)[C@H]1O | 430 nM | 150 nM | 16 µg/mL (≈ 45.5 µM) | 64 µg/mL (≈ 182 µM) | – | – | – | 0.66 | – | – | – | – |
| Nc1nc(OC2CCCC2)nc2c1ncn2[C@@H]1O[C@H](CO)[C@H](Cl)[C@H]1O | 110 nM | 80 nM | 8 µg/mL (≈ 21.6 µM) | 8 µg/mL (≈ 21.6 µM) | – | – | – | – | – | – | – | – |
| C[C@H]1O[C@@H](n2cnc3c(N)nc(OCC4CC45CC5)nc32)[C@H](O)[C@H]1Cl (some centres undefined) | 30 nM | 20 nM | 0.5 µg/mL (≈ 1.37 µM) | 1 µg/mL (≈ 2.73 µM) | – | 3.7 | 21 µM (≈ 7.68 µg/mL) | 0.04 | – | – | – | – |
| C[C@H]1O[C@@H](n2cnc3c(N)nc(OC4CC5CC5C4)nc32)[C@H](O)[C@@H]1O (some centres undefined) | 130 nM | 60 nM | 2 µg/mL (≈ 5.76 µM) | 4 µg/mL (≈ 11.5 µM) | – | – | – | – | – | – | – | – |
| C[C@H]1O[C@@H](n2cnc3c(N)nc(OC4CCCC4)nc32)[C@H](O)[C@@H]1OCc1ccc(Cl)c(Cl)c1 | 130 nM | < 10 nM | 0.5 µg/mL (≈ 1.01 µM) | 8 µg/mL (≈ 16.2 µM) | – | > 3.5 | < 1 µM | – | – | – | – | – |
